Results as given in patent publication US12492182B2, “Hydroxytriazine compounds and pharmaceutical use thereof” (Japan Tobacco Inc., priority 2015, dated 2025).
pIC50: −log10 of the molar value.

Experiments:
[1] = biological target: T1, human mPGES-1 (Homo sapiens, UniProt O14684); test: Evaluation of human mPGES-1 enzyme inhibitory activity (HTRF measurement of PGE2); format: biochemical; conditions: IC50 value; microsome fraction of CHO-S cells expressing human mPGES-1, PGH2 substrate, PGE2 by HTRF; read-out: humans mPGES-1 enzyme inhibitory activity
T1 construct: made in house; host or cells: Chinese hamster ovary-derived cells (FreeStyle CHO-S), transient transfection of pcDNA3.1(+)/human mPGES-1; microsome fraction
T1 sequence (O14684 1-152): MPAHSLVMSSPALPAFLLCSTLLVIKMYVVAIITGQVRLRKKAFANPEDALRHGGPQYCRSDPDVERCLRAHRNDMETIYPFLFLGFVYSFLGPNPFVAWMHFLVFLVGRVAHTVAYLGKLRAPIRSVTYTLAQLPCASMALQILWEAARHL
Procedure, shortened: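 Enzyme source was a microsome fraction from CHO-S cells transfected with human mPGES-1, diluted to 5 μg/mL protein in reduced GSH (12.5 mmol/L KPB), preincubated with compound for 10 min at room temperature with 2% final DMSO. Reaction started with PGH2 and run 45 seconds at room temperature. PGE2 measured by HTRF.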

[2] = test system: A549 cell; test: Evaluation of PGE2 production inhibitory action using A549 cell (IL-1β stimulated); format: cell-based, human; conditions: Homo sapiens, A549, A549 cell, recombinant human IL-1β stimulation; read-out: cell PGE2 production inhibitory activity (IC50 value)
Procedure, shortened: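 A549 cells (human lung cancer) in F-12K with 2% FBS were preincubated with test article for 30 min, then stimulated with IL-1β (1 ng/mL final) for 18 hr at 37 °C; 0.5% DMSO final. Supernatant PGE2 was measured by HTRF against a standard curve; inhibition is relative to vehicle and unstimulated blank wells.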

Row | Structure (SMILES) | pIC50 [1] | pIC50 [2]
1 | CC(C)c1cccc(-c2nc(O)nc(-c3cc(CNC(=O)C(C)(C)C(F)F)ccc3Cl)n2)c1 [Example 77] | 9.10 | 7.36
2 | CCC[C@@H](C)Oc1ccc(-c2nc(O)nc(-c3cc(CNC(=O)C(C)(C)OC)ccc3Cl)n2)cn1 [Example 78] | 8.92 | 8.04
3 | CCC[C@@H](C)Oc1ccc(-c2nc(O)nc(-c3cc(CNC(=O)[C@@](C)(OC)C(F)(F)F)ccc3Cl)n2)cn1 [Example 80] | 8.57 | 8.70
4 | CCCCCCOc1ccc(-c2nc(O)nc(-c3cc(CNC(=O)C(CC)(CC)OC)ccc3Cl)n2)cn1 [Example 82] | 8.14 | 8.66
5 | CCCCCCOc1ccc(-c2nc(O)nc(-c3cc(CNC(=O)[C@@](C)(OC)C(F)(F)F)ccc3Cl)n2)cn1 [Example 83] | 8.30 | 8.57
6 | CCCCCCOc1ccc(-c2nc(O)nc(-c3cc(CNC(=O)C(C)(C)CF)ccc3Cl)n2)cn1 [Example 84] | 8.70 | 8.22
7 | CCCCCCOc1ccc(-c2nc(O)nc(-c3cc(CNC(=O)C(C)(C)C(F)F)ccc3Cl)n2)cn1 [Example 85] | 8.31 | 8.46
8 | CCC[C@H](C)Oc1ccc(-c2nc(O)nc(-c3cc(CNC(=O)C(C)(C)C(F)(F)F)ccc3Cl)n2)cn1 [Example 86] | 8.74 | 8.68
9 | CC(C)(C)c1cc(-c2nc(O)nc(-c3cc(CNC(=O)C(C)(C)C(F)(F)F)ccc3Cl)n2)ccc1Cl [Example 87] | 8.28 | 8.54
10 | CC(C)c1cc(-c2nc(O)nc(-c3cc(CNC(=O)C(C)(C(F)(F)F)C(F)(F)F)ccc3Cl)n2)ccc1Cl [Example 88] | 7.72 | 8.80
11 | CC1(c2cccc(-c3nc(O)nc(-c4cc(CNC(=O)C(C)(C(F)(F)F)C(F)(F)F)ccc4Cl)n3)c2)CC1 [Example 89] | 8.43 | 8.60
12 | CC(C)c1cccc(-c2nc(O)nc(-c3cc(CNC(=O)C(C)(C(F)(F)F)C(F)(F)F)ccc3Cl)n2)c1 [Example 90] | 8.68 | 8.41
13 | CC(C)(C)c1cccc(-c2nc(O)nc(-c3cc(CNC(=O)C(C)(C(F)(F)F)C(F)(F)F)ccc3Cl)n2)c1 [Example 91] | 8.34 | 8.40
14 | CC(C)c1cccc(-c2nc(O)nc(-c3cc(CNC(=O)C4(CF)CCCC4)ccc3Cl)n2)c1 [Example 92] | 9.30 | 7.05
15 | CC(C)(C)c1cccc(-c2nc(O)nc(-c3cc(CNC(=O)C4(CF)CCCC4)ccc3Cl)n2)c1 [Example 93] | 8.89 | 7.52
16 | CC1(c2cccc(-c3nc(O)nc(-c4cc(CNC(=O)C5(CF)CCCC5)ccc4Cl)n3)c2)CC1 [Example 94] | 9.00 | 7.23
17 | CC(C)c1cc(-c2nc(O)nc(-c3cc(CNC(=O)C4(CF)CCCC4)ccc3Cl)n2)ccc1Cl [Example 95] | 8.72 | 7.77
18 | CC(C)c1cccc(-c2nc(O)nc(-c3cc(CNC(=O)C4(C(F)F)CCCC4)ccc3Cl)n2)c1 [Example 96] | 9.10 | 7.21
19 | CC(C)c1cc(-c2nc(O)nc(-c3cc(CNC(=O)C4(C(F)F)CCCC4)ccc3Cl)n2)ccc1Cl [Example 97] | 8.42 | 8.05
20 | CC(C)c1cccc(-c2nc(O)nc(-c3cc(CNC(=O)C4(CF)CCCCC4)ccc3Cl)n2)c1 [Example 98] | 8.92 | 7.37
21 | CC(C)(C)c1cccc(-c2nc(O)nc(-c3cc(CNC(=O)C4(CF)CCCCC4)ccc3Cl)n2)c1 [Example 99] | 8.77 | 7.96
22 | CC1(c2cccc(-c3nc(O)nc(-c4cc(CNC(=O)C5(CF)CCCCC5)ccc4Cl)n3)c2)CC1 [Example 100] | 9.05 | 7.37
23 | CC(C)c1cc(-c2nc(O)nc(-c3cc(CNC(=O)C4(CF)CCCCC4)ccc3Cl)n2)ccc1Cl [Example 101] | 8.68 | 8.10
24 | CCC[C@H](C)Oc1ccc(-c2nc(O)nc(-c3cc(CNC(=O)C(C)(C)OC)ccc3Cl)n2)cn1 [Example 102] | 8.96 | 7.60
25 | CCC[C@H](C)Oc1ccc(-c2nc(O)nc(-c3cc(CNC(=O)C(CC)(CC)OC)ccc3Cl)n2)cn1 [Example 103] | 8.62 | 8.19
26 | CCC[C@H](C)Oc1ccc(-c2nc(O)nc(-c3cc(CNC(=O)C(C)(C)CF)ccc3Cl)n2)cn1 [Example 105] | 8.82 | 7.82
